Test results from US20220340564A1, “ANTIBACTERIAL COMPOUNDS” (Janssen Sciences Ireland Unlimited Company, priority 2019, published 2022).

These compounds were tested on Mycobacterium tuberculosis strain EH4.0 expressing green-fluorescent protein (GFP) (assay: microbe, parasite or virus in culture). Conditions: 168 h, read-out: pIC50 (converted).
Assay type: cell-based

Row | Compound | IC50
1 | CCc1nc2ccc(N3CCCC3)cn2c1C(=O)NCc1ccc(N2CCN(S(=O)(=O)C(F)(F)F)C=N2)cc1 [Compound 65] | ≥ 501 nM
2 | CCOc1cn2c(CC)c(C(=O)NCc3ccc(N4CCN(S(=O)(=O)C(F)(F)F)C=N4)c(F)c3)nc2nc1N1CCCC1 [Compound 81] | ≥ 501 nM
3 | CCc1nc2cc3c(cn2c1C(=O)NCc1ccc(N2CCN(S(=O)(=O)C(F)(F)F)C=N2)c(F)c1)OCO3 [Compound 134] | 7.59 nM
4 | CCc1nc2cc(C)c(Cl)cn2c1C(=O)NCc1ccc(N2CCN(S(=O)(=O)C(F)(F)F)C=N2)cc1 [Compound 107] | 24 nM
5 | CCc1nc2cc(Cl)c(OC)cn2c1C(=O)NCc1ccc(N2CCN(S(=O)(=O)C(F)(F)F)C(OC)=N2)cc1 [Compound 45] | 39.8 nM
6 | COc1ccn2nc(C)c(C(=O)NCc3ccc(N4CCN(S(=O)(=O)C(F)(F)F)C=N4)cc3)c2c1 [Compound 14] | 6.31 nM
7 | CCc1nc2c(N)cc(C)cn2c1C(=O)NCc1ccc(N2CCN(S(=O)(=O)C(F)(F)F)C=N2)c(F)c1 [Compound 212] | 25.7 nM
8 | CCc1nc2c(F)cc(Cl)cn2c1C(=O)NCc1ccc(N2CCN(S(=O)(=O)C(F)(F)F)C(OC)=N2)c(F)c1 [Compound 210] | 3.02 nM
9 | CCc1nc2ccc(C)cn2c1C(=O)NCc1ccc(N2CCN(S(=O)(=O)C(F)(F)F)C(C)=N2)cc1 [Compound 215] | 0.912 nM
10 | O=C(NCc1ccc(N2CCN(S(=O)(=O)C(F)(F)F)C=N2)c(F)c1)c1c(C(F)(F)F)nc2cc(F)c(Cl)cn12 [Compound 114] | 16.2 nM
11 | O=C(NCc1ccc(N2CCN(S(=O)(=O)C(F)(F)F)C=N2)c(F)c1)c1c(C(F)F)nc2n1CCCC2 [Compound 147] | 3.8 nM
12 | O=C(NCc1ccc(N2CCN(S(=O)(=O)C(F)(F)F)C=N2)c(F)c1)c1c(C(F)(F)F)nc2n1CCCC2 [Compound 123] | 10.2 nM
13 | CCc1nc2cc(OC)ccn2c1C(=O)NCc1ccc(N2CCN(S(=O)(=O)C(F)(F)F)C(OC)=N2)c(F)c1 [Compound 75] | 6.31 nM
14 | CCc1nc2n(c1C(=O)NCc1ccc(N3CCN(S(=O)(=O)C(F)(F)F)C=N3)cc1)CCCC2 [Compound 3] | 31.6 nM
15 | CCc1nc2ncc(COC)cn2c1C(=O)NCc1ccc(N2CCN(S(=O)(=O)C(F)(F)F)C=N2)cc1 [Compound 33] | 25.1 nM
16 | CCc1nc2ccc(Cl)cn2c1C(=O)NCc1ccc(N2CCN(S(=O)(=O)C(F)(F)F)C=N2)c(C)c1 [Compound 5] | 7.94 nM
17 | Cc1nc2sc(Cl)cn2c1C(=O)NCc1ccc(N2CCN(S(=O)(=O)C(F)(F)F)C=N2)c(F)c1 [Compound 133] | 7.59 nM
18 | CCc1nc2ccc(C)cn2c1C(=O)NCc1ccc(N2CCN(S(=O)(=O)C(F)(F)F)C=N2)c(F)c1 [Compound 164] | 0.245 nM
19 | CCc1nc2nc(OC)c(F)cn2c1C(=O)NCc1ccc(N2CCN(S(=O)(=O)C(F)(F)F)C=N2)c(F)c1 [Compound 179] | 126 nM
20 | CCc1nc2nc(Cl)ccn2c1C(=O)NCc1ccc(N2CCN(S(=O)(=O)C(F)(F)F)C=N2)c(F)c1 [Compound 125] | 9.77 nM
21 | CCc1nc2c(C)cc(Cl)cn2c1C(=O)NCc1ccc(N2CCN(S(=O)(=O)C(F)(F)F)C=N2)c(F)c1 [Compound 85] | 95.5 nM
22 | CCc1nc2cc(Br)c(C)cn2c1C(=O)NCc1ccc(N2CCN(S(=O)(=O)C(F)(F)F)C=N2)c(F)c1 [Compound 97] | 33.9 nM
23 | CCc1nc2cc(Cl)c(C)cn2c1C(=O)NCc1ccc(N2CCN(S(=O)(=O)C(F)(F)F)C(OC)=N2)c(F)c1 [Compound 209] | 11.2 nM

Row | Compound | IC50
24 | CCc1nc2ncc(C(=O)N(C)C)cn2c1C(=O)NCc1ccc(N2CCN(S(=O)(=O)C(F)(F)F)C=N2)cc1 [Compound 60] | 200 nM
25 | CCc1nc2ccc(Cl)cn2c1C(=O)NCc1ccc(N2CCNC(OC)=N2)cc1 [Compound 96] | 36.3 nM
26 | CCc1nc2cc3c(cn2c1C(=O)NCc1ccc(N2CCN(S(=O)(=O)C(F)(F)F)C=N2)c(F)c1)OCCN3C [Compound 191] | 38 nM
27 | CCc1nc2ccc(Cl)cn2c1C(=O)NCc1ccc(N2CCN(C)C=N2)cc1 [Compound 15] | 25.1 nM
28 | CCc1nc2nc(C)c(Cl)cn2c1C(=O)NCc1ccc(N2CCN(S(=O)(=O)C(F)(F)F)C=N2)c(F)c1 [Compound 155] | 1.62 nM
29 | CCc1nc2ccc(Cl)cn2c1C(=O)NCc1ccc(N2CCN(Cc3nc(C(F)(F)F)cs3)C=N2)cc1 [Compound 69] | 126 nM
30 | CCc1nc2ccc(Cl)cn2c1C(=O)NCc1ccc(N2CCN(S(=O)(=O)CCOC)C=N2)cc1 [Compound 19] | 39.8 nM
31 | Cc1cc(F)c2ncc(C(=O)NCc3ccc(N4CCN(S(=O)(=O)C(F)(F)F)C=N4)c(F)c3)n2c1 [Compound 173] | 50.1 nM
32 | COC1=NN(c2ccc(CNC(=O)c3c(C(F)F)nc4ccccn34)cc2)CCN1S(=O)(=O)C(F)(F)F [Compound 149] | 3.55 nM
33 | CCc1nc2c(Cl)cc(C)cn2c1C(=O)NCc1ccc(N2CCN(S(=O)(=O)C(F)(F)F)C=N2)c(F)c1 [Compound 102] | 29.5 nM
34 | CCc1nc2cc(Br)c(Cl)cn2c1C(=O)NCc1ccc(N2CCN(S(=O)(=O)C(F)(F)F)C=N2)c(F)c1 [Compound 103] | 28.2 nM
35 | O=C(NCc1ccc(N2CCN(S(=O)(=O)C(F)(F)F)C=N2)c(F)c1)c1c(C(F)(F)F)nc2c(F)cccn12 [Compound 186] | 3.63 nM
36 | CCc1nc2c(C)cc(F)cn2c1C(=O)NCc1ccc(N2CCN(S(=O)(=O)C(F)(F)F)C=N2)c(F)c1 [Compound 89] | 83.2 nM
37 | CCc1nc2ccc(C#N)cn2c1C(=O)NCc1ccc(N2CCN(S(=O)(=O)C(F)(F)F)C=N2)cc1 [Compound 72] | 158 nM
38 | CCc1nc2cc(NC)c(Cl)cn2c1C(=O)NCc1ccc(N2CCN(S(=O)(=O)C(F)(F)F)C=N2)c(F)c1 [Compound 80] | ≥ 501 nM
39 | CCc1nc2cc(OC)ccn2c1C(=O)NCc1ccc(N2CCN(S(=O)(=O)C(F)(F)F)C(OC)=N2)cc1 [Compound 52] | 41.7 nM
40 | O=C(NCc1ccc(N2CCN(S(=O)(=O)C(F)(F)F)C=N2)cc1)c1c(C2CC2)nc2ncc(Cl)cn12 [Compound 7] | 63.1 nM
41 | CCc1nc2ccc(Cl)cn2c1C(=O)NCc1cnc(N2CCN(S(=O)(=O)C(F)(F)F)C=N2)c(C)c1 [Compound 208] | 69.2 nM
42 | CCc1nc2cc(OC)c(Cl)cn2c1C(=O)NCc1ccc(N2CCN(S(=O)(=O)C(F)(F)F)C(OC)=N2)cc1 [Compound 68] | ≥ 501 nM
43 | CCc1nc2ncc(C)cn2c1C(=O)NCc1cnc(N2CCN(S(=O)(=O)C(F)(F)F)C=N2)c(F)c1 [Compound 201] | 12 nM
44 | CCc1nc2ncc(C)cn2c1C(=O)NCc1ccc(N2CCN(S(=O)(=O)C(F)(F)F)C(OC)=N2)cc1 [Compound 200] | 5.5 nM
45 | Cc1cn2c(C(=O)NCc3ccc(N4CCN(S(=O)(=O)C(F)(F)F)C=N4)c(F)c3)c(C)nc2s1 [Compound 153] | 1.78 nM
46 | CCc1nc2n(c1C(=O)NCc1ccc(N3CCN(S(=O)(=O)CCOC)C=N3)cc1)CCCC2 [Compound 58] | 251 nM

Row | Compound | IC50
47 | CCc1nc2nc3c(cn2c1C(=O)NCc1ccc(N2CCN(S(=O)(=O)C(F)(F)F)C=N2)c(F)c1)CCOC3 [Compound 169] | 10 nM
48 | CCc1nc2cc3c(cn2c1C(=O)NCc1ccc(N2CCN(S(=O)(=O)C(F)(F)F)C=N2)c(F)c1)OCCO3 [Compound 100] | 31.6 nM
49 | CCc1nc2c(C)cc(OC)cn2c1C(=O)NCc1ccc(N2CCN(S(=O)(=O)C(F)(F)F)C=N2)c(F)c1 [Compound 105] | 27.5 nM
50 | CCc1nc2c(Cl)cc(Cl)cn2c1C(=O)NCc1ccc(N2CCN(S(=O)(=O)C(F)(F)F)C=N2)c(F)c1 [Compound 87] | 89.1 nM
51 | COC1=NN(c2ccc(CNC(=O)c3c(C(F)F)nc4n3CCCC4)cc2)CCN1S(=O)(=O)C(F)(F)F [Compound 109] | 20 nM
52 | CCc1nc2cc(C)c(C)cn2c1C(=O)NCc1cnc(N2CCN(S(=O)(=O)C(F)(F)F)C=N2)c(F)c1 [Compound 185] | 46.8 nM
53 | CCc1nc2cc(F)c(Cl)cn2c1C(=O)NCc1ccc(N2CCN(S(=O)(=O)C(F)(F)F)C(OC)=N2)c(F)c1 [Compound 141] | 4.9 nM
54 | COC1=NN(c2ccc(CNC(=O)c3c(C(F)F)nc4n3CCCC4)cc2F)CCN1S(=O)(=O)C(F)(F)F [Compound 137] | 6.17 nM
55 | COC1=NN(c2ccc(CNC(=O)c3c(C(F)(F)F)nc4ccccn34)cc2)CCN1S(=O)(=O)C(F)(F)F [Compound 150] | 2.95 nM
56 | CCc1nc2ccc(F)cn2c1C(=O)NCc1ccc(N2CCN(S(=O)(=O)C(F)(F)F)C(OC)=N2)c(F)c1 [Compound 204] | 4.47 nM
57 | CCc1nc2nc3c(cn2c1C(=O)NCc1ccc(N2CCN(S(=O)(=O)C(F)(F)F)C=N2)c(F)c1)CCCC3 [Compound 119] | 13.5 nM
58 | COC1=NN(c2ccc(CNC(=O)c3c(C(F)(F)F)nc4n3CCCC4)cc2)CCN1S(=O)(=O)C(F)(F)F [Compound 98] | 33.1 nM
59 | CCc1nc2nc3c(cn2c1C(=O)NCc1ccc(N2CCN(S(=O)(=O)C(F)(F)F)C=N2)c(F)c1)COCC3 [Compound 90] | 74.1 nM
60 | COC1=NN(c2ccc(CNC(=O)c3c(C(F)(F)F)nc4ccccn34)cc2F)CCN1S(=O)(=O)C(F)(F)F [Compound 79] | 3.72 nM
61 | O=C(NCc1cnc(N2CCN(S(=O)(=O)C(F)(F)F)C=N2)c(F)c1)c1c(C(F)(F)F)nc2c(F)cccn12 [Compound 182] | 31.6 nM
62 | CCc1nc2ncc(Cl)cn2c1C(=O)NCc1ccc(N2CCN(S(=O)(=O)C(F)(F)F)C(OC)=N2)cc1 [Compound 27] | 2 nM
63 | CCc1nc2ccc(Cl)cn2c1C(=O)NCc1ccc(N2C=NN(C)CC2)cc1 [Compound 4] | 39.8 nM
64 | CCc1nc2ccc(Cl)cn2c1C(=O)NCc1ccc(N2CCN(S(=O)(=O)C(F)(F)F)C(OC)=N2)c(F)c1 [Compound 37] | 3.98 nM
65 | Cc1cc(F)c2nc(C(F)(F)F)c(C(=O)NCc3cnc(N4CCN(S(=O)(=O)C(F)(F)F)C=N4)c(F)c3)n2c1 [Compound 184] | 31.6 nM
66 | Cc1ccc2nc(C(F)(F)F)c(C(=O)NCc3cnc(N4CCN(S(=O)(=O)C(F)(F)F)C=N4)c(F)c3)n2c1 [Compound 176] | 15.8 nM
67 | CCc1nc2ncc(C(C)=O)cn2c1C(=O)NCc1ccc(N2CCN(S(=O)(=O)C(F)(F)F)C=N2)cc1 [Compound 62] | ≥ 501 nM
68 | CCc1nc2ccc(Cl)cn2c1C(=O)NCc1ccc(N2CCN(S(=O)(=O)C(F)(F)F)C(CN(C)C)=N2)cc1 [Compound 74] | 6.76 nM
